Data as given in the CATMoS acute toxicity set (Mansouri et al. 2021).

Test: GHS categories as the set defines them, by LD50: 1 up to 5, 2 up to 50, 3 up to 300, 4 up to 2000, 5 above 2000 mg/kg
Details: rat; in vivo; po

| SMILES | GHS category |
| --- | --- |
| O=S(=O)(O)c1cc(Nc2nc(Cl)nc(N(CCO)CCO)n2)ccc1C=Cc1ccc(Nc2nc(Cl)nc(N(CCO)CCO)n2)cc1S(=O)(=O)O | 5 |
| CC/C=C\CCOC=O | 5 |
| CS(=O)(=O)c1ccc(C(=O)C2C(=O)CCCC2=O)c([N+](=O)[O-])c1 | 5 |
| C=CC(=O)NCCO | 5 |
| CCCCCCCCCCCCOC(=O)C=CC(=O)OCCCCCCCCCCCC | 5 |
| Cc1nc2cc(Cl)ccc2o1 | 4 |
| CC(=O)OC1CCC(NCc2ccccc2N)CC1 (stereo not given) | 5 |
| CCN(C(=O)CCCn1nnnc1C)C1CCCCC1 | 4 |
| CCCCCC(O)CC (stereo not given) | 5 |
| COc1ccccc1N1CCN(/C(N)=N/c2cc(Cl)cc(Cl)c2)CC1 | 4 |
| Cc1nc(NS(=O)(=O)c2ccc(N)cc2)oc1C | 5 |
| CC(=O)c1ccc2cc(CC(=O)O)ccc2c1 | 5 |
| O=C(O)COc1nn(-c2cccc(C(F)(F)F)c2)c2ncccc12 | 4 |
| O=CC1=C(C(Cl)(Cl)Cl)C(Cl)(Cl)C(O)C1(Cl)Cl (stereo not given) | 4 |
| CNC(=O)Oc1cccc2c1OC(C)O2 (stereo not given) | 3 |
| COC(=O)CCC(=O)OC | 5 |
| Cc1cc(=O)[nH]c2cc(OCCCN3CCC(Cc4ccccc4)CC3)ccc12 | 4 |
| CC1Cc2ccccc2N1NC(=O)c1ccc(Cl)c(S(N)(=O)=O)c1 (stereo not given) | 5 |
| CC(C)OC(=O)CCC(=O)OC(C)C | 5 |
| CCOC(=O)COc1ccc2c(=O)cc(-c3ccccc3)oc2c1 | 5 |
| C=CCOc1c(Br)cc(C(C)(C)c2cc(Br)c(OCC=C)c(Br)c2)cc1Br | 5 |
| CN(C)CC(=O)N/N=C/c1c(Cl)nc2n1CCS2 | 4 |
| CCOCc1nc(=O)c2nccnc2[nH]1 | 5 |
| CC(C)(C)c1ccc(OP(=O)(Oc2ccccc2)Oc2ccccc2)cc1 | 5 |
| CCCCCCCCCCCCCCCC(=O)OC1=C(C(=O)Nc2ccccn2)N(C)S(=O)(=O)c2ccsc21 | 2 |
| C=C(C)C(=O)NCCC[N+](C)(C)C | 5 |
| CCN(CC)C(=O)C(C)Oc1cccc2ccccc12 (stereo not given) | 5 |

| SMILES | GHS category |
| --- | --- |
| CO[C@]1(C)CC[C@@]23C[C@@H]1C(C)(C)[C@@H]2CC[C@H]3C | 5 |
| CCCCCCCC/C=C\CCCCCCCCCCCC(N)=O | 5 |
| CNc1ccc(C(=O)O)cc1[N+](=O)[O-] | 5 |
| CC(C)(C)c1cc(S)c(O)c(C(C)(C)C)c1 | 5 |
| COc1cc(S(=O)(=O)O)c(C)cc1NC(=O)CC(C)=O | 5 |
| CC[C@H]1CO[C@@](Cn2cncn2)(c2cc3cc(Cl)ccc3o2)O1 | 4 |
| S=C(SSC(=S)N(Cc1ccccc1)Cc1ccccc1)N(Cc1ccccc1)Cc1ccccc1 | 5 |
| c1ccc([Si]2(c3ccccc3)O[Si](c3ccccc3)(c3ccccc3)O[Si](c3ccccc3)(c3ccccc3)O[Si](c3ccccc3)(c3ccccc3)O2)cc1 | 5 |
| C/C=C(\C)C(=O)OCCc1ccccc1 | 5 |
| CO[Si](CC(C)C)(OC)OC | 5 |
| CC(O)(CC(=O)O)c1ccc(C2CCCCC2)c(Cl)c1 (stereo not given) | 4 |
| COc1cc(C(=O)OCCCN2CCCN(CCCOC(=O)c3cc(OC)c(OC)c(OC)c3)CC2)cc(OC)c1OC | 5 |
| COc1nc2cc(Cl)ccc2o1 | 4 |
| CC1COCc2cc3c(cc21)C(C)(C)C(C)C3(C)C (stereo not given) | 5 |
| Cc1c(C)c([N+](=O)[O-])c(C(C)(C)C)c([N+](=O)[O-])c1C | 5 |
| CCOc1nc(NC)nc(NC(=O)NS(=O)(=O)c2ccccc2C(=O)OC)n1 | 5 |
| Cc1ccn2nc(S(=O)(=O)Nc3c(F)cccc3F)nc2n1 | 5 |
| Clc1ccc(CSc2ccc(Cl)cc2)cc1 | 5 |
| Cc1cccc2ncc(C(=O)NC(C)(C)C)c(=O)n12 | 3 |
| CCSC | 5 |
| C#C[C@]1(O)CC[C@H]2[C@@H]3CCc4cc(OC)ccc4[C@H]3CC[C@@]21C | 5 |
| CCCCCCCCCCCCCCCCCCCC | 5 |
| CC(C)=CCC(C#N)(CCN1CCOCC1)c1cccc2ccccc12 (stereo not given) | 4 |
| Cc1ncc(CSSSCc2cnc(C)c(O)c2CO)c(CO)c1O | 5 |
| COC(OC)C(C)Cc1ccc(C(C)C)cc1 (stereo not given) | 5 |
| CCCC(=O)Nc1ccc(Cc2ccccn2)c([N+](=O)[O-])c1 | 4 |
| O=C(NNCc1ccccc1)C(O)C(O)C(O)CO (stereo not given) | 5 |

| SMILES | GHS category |
| --- | --- |
| O=C1c2c(Br)c(Br)c(Br)c(Br)c2C(=O)N1CCN1C(=O)c2c(Br)c(Br)c(Br)c(Br)c2C1=O | 5 |
| O=C(CC1Sc2ccccc2NC1=O)Nc1cccc(Cl)c1 (stereo not given) | 5 |
| CCCCCCCCCCCCCCCC(=O)OCCCCCCCCCCCCCCCC(C)C | 5 |
| CCC(C#N)(CCN(CC=C(C)C)CC=C(C)C)c1cccc2ccccc12 (stereo not given) | 4 |
| C/C(=C\CO)CCC[C@H](C)CCC[C@H](C)CCCC(C)C | 5 |
| CC(CCC(=O)O)C(=O)O (stereo not given) | 4 |
| NCCCN(CCO)CCO | 5 |
| CCSP(=O)(SCC)SCC | 3 |
| C=CC(=C)CC/C=C(\C)CCC=C(C)C | 5 |
| C=C(C)C1CCC(C)C(=O)C1 (stereo not given) | 5 |
| CCCCCCCC/C=C\CCCCCCCC(=O)OCC(C)(C)COC(=O)CCCCCCC/C=C\CCCCCCCC | 5 |
| C[C@@H]1CC[C@@]2(OC1)O[C@H]1[C@@H](O)[C@H]3[C@@H]4CC[C@H]5C[C@@H](O[C@@H]6O[C@H](CO)[C@H](O[C@@H]7O[C@H](CO)[C@@H](O)[C@H](O[C@@H]8OC[C@@H](O)[C@H](O)[C@H]8O)[C@H]7O[C@@H]7O[C@H](CO)[C@@H](O)[C@H](O[C@@H]8O[C@H](CO)[C@@H](O)[C@H](O)[C@H]8O)[C@H]7O)[C@H](O)[C@H]6O)[C@H](O)C[C@]5(C)[C@H]4CC[C@]3(C)[C@H]1[C@@H]2C | 3 |
| CC(C)=CCC/C(C)=C/CC/C(C)=C/CCC(=O)OC/C=C(\C)CCC=C(C)C | 5 |
| CCCCCCCCOC(=O)c1ccc(C(=O)OCCCCCCCC)cc1 | 5 |
| Nc1ccn([C@@H]2O[C@H](CO)[C@@H](O)[C@@H]2O)c(=O)n1 | 5 |
| CC[C@H]1OC(=O)C[C@@H](O)[C@H](C)[C@@H](O[C@@H]2O[C@H](C)[C@@H](O[C@H]3C[C@@](C)(O)[C@@H](O)[C@H](C)O3)[C@H](N(C)C)[C@H]2O)[C@@H](CC=O)C[C@@H](C)C(=O)C=CC(C)=CC1CO[C@@H]1O[C@H](C)[C@@H](O)[C@@H](OC)[C@H]1OC (stereo not given in full) | 5 |
| Nc1ccc2c(c1)C(=O)c1ccccc1C2=O | 5 |
| CCCCCCCCCCCCCCCC(=O)O | 5 |
| COCCOCCOC(=O)C(=O)Nc1nc(-c2ccccc2)cs1 | 5 |
| CCCCC(CC)COCC(O)COc1ccc(-c2nc(-c3ccc(C)cc3C)nc(-c3ccc(C)cc3C)n2)c(O)c1 (stereo not given) | 5 |
| CC(C)CC(C)(C)C | 5 |
| CN1C(=O)c2ccc3c4ccc5c6c(ccc(c7ccc(c2c37)C1=O)c64)C(=O)N(C)C5=O | 5 |
| CCC(C(=O)NC(N)=O)c1ccccc1 (stereo not given) | 5 |
| O=C(O)CCCCCCCCCCCC(=O)O | 5 |
| CCCN(C=Nc1cccc(=O)[nH]1)CCC | 5 |
| C=CC(=C)CCC=C(C)CCC=C(C)C=O | 5 |
